The source of these data is US8501778B2, “Aralkyl piperidine derivatives and their uses as antalgic or ataractic agent” (priority 2008, dated 2013).

Each structure is given as a SMILES string. Where a name gives a salt, the structure may show the parent alone.

For one experiment, the system named is Kunming mice. Briefly: Acetic Acid Twisting Method in mice (antalgic effect). The format is in vivo. To be noted: Mus musculus, po; 20 mg/kg, gavage administration, mice; read-out: twisting response inhibiting rate (%).
Consider `CC(=O)Oc1ccccc1C(=O)O` [Aspirin, reference compound], for which the inhibition in vivo at 20 mg/kg stood at 90%.

Staying with this experiment, now noted: Mus musculus, sc, read-out: antalgic.
As for `O=C(CC1(O)CCN(c2ccc3ccccc3n2)CC1)c1ccccc1` [III-11, N-(2-quinolyl)-4-benzoylmethyl-4-piperidinol hydrochloride], the inhibition in vivo at 20 mg/kg stood at 44%.

Regarding `O=C(CC1(O)CCN(Cc2ccccc2)CC1)c1ccc(N2CCCC2)cc1` [III-35, N-benzyl-4-(4-(pyrrolidinyl)benzoylmethyl)-4-piperidinol hydrochloride], the inhibition in vivo at 20 mg/kg was found to be 64%.

Regarding `O=C(CC1(O)CCN(c2ncccn2)CC1)c1ccccc1` [III-9, N-(2-pyrimidinyl)-4-benzoylmethyl-4-piperidinol hydrochloride], the inhibition in vivo at 20 mg/kg worked out at 57%.

As for `OC(CC1(O)CCN(Cc2ccc3c(c2)CCN3)CC1)c1ccccc1` (stereo not shown) [Compound V-6, N-(5-indolinyl)methyl-4-(2-hydroxy-2-phenylethyl)-4-piperidinol hydrochloride], the inhibition in vivo at 20 mg/kg was 69%.

Regarding `CC(c1ccc(N2CCOCC2)cc1)N1CCC(O)(CC(O)c2ccccc2)CC1` (stereo not shown) [Compound V-8, N-(1-(4-morpholinophenyl)ethyl)-4-(2-hydroxy-2-phenylethyl)-4-piperidinol hydrochloride], the inhibition in vivo at 20 mg/kg was determined as 77%.

Turning to `C[C@H](c1ccccc1)N1CCC(O)(CC(=O)c2ccccc2)CC1` [III-17, (R)—N-(1-phenylethyl)-4-benzoylmethyl-4-piperidinol hydrochloride], the inhibition in vivo at 20 mg/kg turned out to be 66%.

For the molecule `O=C(CC1(Cl)CCN(Cc2ccc3c(c2)OCO3)CC1)c1ccccc1` [IX-6, N-(benzo[d][1,3]dioxol-5-ylmethyl)-4-benzoylmethyl-4-chloropiperidine hydrochloride], the inhibition in vivo at 20 mg/kg was 59%.

In the case of `O=C(CC1(O)CCN(Cc2ccccc2)CC1)c1ccc(N2CCOCC2)cc1` [III-36, N-benzyl-4-((4-morpholinobenzoyl)methyl)-4-piperidinol hydrochloride], the inhibition in vivo at 20 mg/kg was found to be 41%.

Take `CC(c1ccc(N2CCOCC2)cc1)N1CCC(O)(CC(=O)c2ccccc2)CC1` (stereo not shown) [III-27, N-(1-(4-morpholinophenyl)ethyl)-4-benzoylmethyl-4-piperidinol hydrochloride]: the inhibition in vivo at 20 mg/kg worked out at 92%.

As to `COc1cc(CN2CCC(O)(CC(=O)c3ccccc3)CC2)cc(OC)c1OC` [III-14, N-(3,4,5-trimethoxybenzyl)-4-benzoylmethyl-4-piperidinol hydrochloride], the inhibition in vivo at 20 mg/kg worked out at 54%.

For the molecule `O=C(CC1(O)CCN(Cc2ccc3c(c2)OCO3)CC1)c1ccccc1` [III-13, N-(benzo[d][1,3]dioxol-5-ylmethyl)-4-benzoylmethyl-4-piperidinol hydrochloride], the inhibition in vivo at 20 mg/kg turned out to be 37%.

For the molecule `COc1ccc(C(C)N2CCC(CC(=O)c3ccccc3)(OC)CC2)cc1` (stereo not shown) [VIII-2, N-(1-(p-methoxyphenyl)ethyl)-4-benzoylmethyl-4-methoxylpiperidine hydrochloride], the inhibition in vivo at 20 mg/kg was 76%.

`COc1ccccc1N1CCC(O)(CC(=O)c2ccccc2)CC1` [III-12, N-(2′-methoxyphenyl)-4-benzoylmethyl-4-piperidinol hydrochloride]: the inhibition in vivo at 20 mg/kg turned out to be 21%.

As to `O=C(CC1(O)CCN(Cc2ccc(N3CCCCC3)cc2)CC1)c1ccccc1` [III-28, N-(4-(1-piperidinyl)benzyl)-4-benzoylmethyl-4-piperidinol hydrochloride], the inhibition in vivo at 20 mg/kg is 64%.

Consider `O=C(CC1(O)CCN(Cc2ccc(N3CCCC3)cc2)CC1)c1ccccc1` [III-24, N-(4-(1-pyrrolidinyl)benzyl)-4-benzoylmethyl-4-piperidinol hydrochloride], for which the inhibition in vivo at 20 mg/kg was 62%.

`CC(c1ccc(N2CCCC2)cc1)N1CCC(O)(CC(=O)c2ccccc2)CC1` (stereo not shown) [III-25, N-(1-(4-(1-pyrrolidinyl)phenyl)ethyl)-4-benzoylmethyl-4-piperidinol hydrochloride]: the inhibition in vivo at 20 mg/kg worked out at 80%.

Regarding `COc1ccccc1N1CCC(O)(CC(O)c2ccccc2)CC1` (stereo not shown) [Compound V-5, N-(2-methoxyphenyl)-4-(2-hydroxy-2-phenylethyl)-4-piperidinol hydrochloride], the inhibition in vivo at 20 mg/kg stood at 72%.

Consider `O=C(CC1(O)CCN(Cc2ncccn2)CC1)c1ccccc1` [III-10, N-(2-pyrimidinyl)methyl-4-benzoylmethyl-4-piperidinol hydrochloride], for which the inhibition in vivo at 20 mg/kg was determined as 51%.

For `OC(CC1(O)CCN(Cc2ccc3c(c2)OCO3)CC1)c1ccccc1` (stereo not shown) [Compound V-4, N-(benzo[d][1,3]dioxol-5-ylmethyl)-4-(2-hydroxy-2-phenylethyl)-4-piperidinol hydrochloride], the inhibition in vivo at 20 mg/kg turned out to be 76%.

As for `C[C@@H](c1ccccc1)N1CCC(O)(CC(=O)c2ccccc2)CC1` [III-18, (S)—N-(1-phenylethyl)-4-benzoylmethyl-4-piperidinol hydrochloride], the inhibition in vivo at 20 mg/kg is 84%.

For the molecule `CC(c1ccc(N2CCOCC2)cc1)N1CCC(F)(CC(=O)c2ccccc2)CC1` (stereo not shown) [IX-3, N-(1-(4-morpholinophenyl)ethyl)-4-benzoylmethyl-4-fluoropiperidine hydrochloride], the inhibition in vivo at 20 mg/kg was determined as 64%.

`O=C(CC1(O)CCN(Cc2ccccc2)CC1)c1ccc2c(c1)CCN2` [III-37, N-benzyl-4-(2-(5-indolinyl)-2-oxoethyl)-4-piperidinol hydrochloride]: the inhibition in vivo at 20 mg/kg was 52%.

Turning to `COc1ccc(CN2CCC(O)(CC(O)c3ccccc3)CC2)cc1` (stereo not shown) [Compound V-1, N-p-methoxybenzyl-4-(2-hydroxy-2-phenylethyl)-4-piperidinol hydrochloride], the inhibition in vivo at 20 mg/kg amounted to 76%.

Regarding `O=C1Cc2cc(CN3CCC(O)(CC(=O)c4ccccc4)CC3)ccc2N1` [III-29, N-(2-oxo-5-indolinyl)methyl-4-benzoylmethyl-4-piperidinol hydrochloride], the inhibition in vivo at 20 mg/kg was found to be 45%.

Take `O=C(CC1(O)CCN(Cc2ccccn2)CC1)c1ccccc1` [III-8, N-(2-pyridyl)methyl-4-benzoylmethyl-4-piperidinol hydrochloride]: the inhibition in vivo at 20 mg/kg was determined as 77%.

Regarding `CC(c1ccc(N2CCCC2)cc1)N1CCC(F)(CC(=O)c2ccccc2)CC1` (stereo not shown) [IX-4, N-(1-(4-(pyrrolidinyl)phenyl)ethyl)-4-benzoylmethyl-4-fluoropiperidine hydrochloride], the inhibition in vivo at 20 mg/kg came to 64%.

In the case of `CC(c1ccccc1)N1CCC(O)(CC(=O)c2ccccc2)CC1` (stereo not shown) [III-16, N-(1-phenylethyl)-4-benzoylmethyl-4-piperidinol hydrochloride], the inhibition in vivo at 20 mg/kg came to 33%.

On to `O=C(CC1(O)CCN(Cc2ccccc2)CC1)c1ccccn1` [III-34, N-benzyl-4-(2-pyridinylformylmethyl)-4-piperidinol hydrobromide], for which the inhibition in vivo at 20 mg/kg was found to be 75%.

`CC(C(=O)c1ccccc1)C1(O)CCN(Cc2ccccc2)CC1` (stereo not shown) [III-39, N-benzyl-4-(1-benzoylethyl)-4-piperidinol hydrochloride]: the inhibition in vivo at 20 mg/kg amounted to 56%.

For `CC(c1ccc(F)cc1)N1CCC(O)(CC(=O)c2ccccc2)CC1` (stereo not shown) [III-20, N-(1-(4-fluorophenyl)ethyl)-4-benzoylmethyl-4-piperidinol hydrochloride], the inhibition in vivo at 20 mg/kg was determined as 37%.

For the molecule `CC(c1ccc(N)cc1)N1CCC(O)(CC(=O)c2ccccc2)CC1` (stereo not shown) [III-21, N-(1-(4-aminophenyl)ethyl)-4-benzoylmethyl-4-piperidinol hydrochloride], the inhibition in vivo at 20 mg/kg was 57%.

On to `COc1ccc(C(C)N2CCC(Cl)(CC(=O)c3ccccc3)CC2)cc1` (stereo not shown) [IX-5, N-(1-(p-methoxyphenyl)ethyl)-4-benzoylmethyl-4-chloropiperidine hydrochloride], for which the inhibition in vivo at 20 mg/kg was 68%.

For the molecule `COc1ccc(C(=O)CC2(O)CCN(Cc3ccccc3)CC2)cc1` [III-32, N-benzyl-4-(p-methoxybenzoylmethyl)-4-piperidinol hydrobromide], the inhibition in vivo at 20 mg/kg was 49%.

For the molecule `CC(c1ccc2c(c1)OCO2)N1CCC(O)(CC(=O)c2ccccc2)CC1` (stereo not shown) [III-22, N-(1-(benzo[d][1,3]dioxol-5-yl)ethyl)-4-benzoylmethyl-4-piperidinol hydrochloride], the inhibition in vivo at 20 mg/kg amounted to 43%.

On to `COc1ccc(C(C)N2CCC(O)(CC(=O)c3ccccc3)CC2)cc1` (stereo not shown) [III-19, N-(1-(4-methoxyphenyl)ethyl)-4-benzoylmethyl-4-piperidinol hydrochloride], for which the inhibition in vivo at 20 mg/kg amounted to 91%.

With `O=C(CC1(O)CCN(Cc2ccc3c(c2)CCN3)CC1)c1ccccc1` [III-30, N-(5-indolinyl)methyl-4-benzoylmethyl-4-piperidinol hydrochloride], the inhibition in vivo at 20 mg/kg stood at 42%.

In the case of `O=C(CC1(F)CCN(Cc2ccc3c(c2)OCO3)CC1)c1ccccc1` [IX-2, N-(benzo[d][1,3]dioxol-5-ylmethyl)-4-benzoylmethyl-4-fluoropiperidine hydrochloride], the inhibition in vivo at 20 mg/kg worked out at 45%.

In the case of `O=C(CC1(O)CCN(Cc2ccc(N3CCOCC3)cc2)CC1)c1ccccc1` [III-26, N-(4-morpholinobenzyl)-4-benzoylmethyl-4-piperidinol hydrochloride], the inhibition in vivo at 20 mg/kg worked out at 64%.

Regarding `COC1(CC(=O)c2ccccc2)CCN(C(C)c2ccc(N3CCOCC3)cc2)CC1` (stereo not shown) [VIII-3, N-(1-(4-morpholinophenyl)ethyl)-4-benzoylmethyl-4-methoxylpiperidine hydrochloride], the inhibition in vivo at 20 mg/kg was 60%.

For `O=C(CC1(O)CCN(Cc2ccccc2)CC1)c1ccc2c(c1)OCO2` [III-38, N-benzyl-4-(2-(benzo[d][1,3]dioxol-5-yl)-2-oxoethyl)-4-piperidinol hydrochloride], the inhibition in vivo at 20 mg/kg was 46%.

On to `O=C(CC1(O)CCN(Cc2ccc(Cl)cc2)CC1)c1ccccc1` [III-2, N-p-chlorobenzyl-4-benzoylmethyl-4-piperidinol hydrochloride], for which the inhibition in vivo at 20 mg/kg came to 14%.

For the molecule `O=C(CC1(O)CCN(Cc2ccccc2)CC1)c1ccc(Cl)cc1` [III-33, N-benzyl-4-(p-chlorobenzoylmethyl)-4-piperidinol hydrobromide], the inhibition in vivo at 20 mg/kg was 26%.
